The values that follow come from the OligoGym collection.

After the bases stand the sugars from the 5' end (letter, count) and the backbone: PS all phosphorothioate, else s phosphorothioate and o phosphodiester by linkage. Methylation of C is not given here. l = locked nucleic acid (LNA); d = 2'-deoxy (DNA)

For the series, the target named is SNHG14. Conditions: ASO.
[1] abbreviates: Mouse Primary Neuronal Cell, 0.005 µM.

With “CCTAAGCTCCATATTTA (sugars l3 d11 l3, PS)”, the target mRNA inhibition runs as follows: (Human Neuronal Cell, 0.2 µM) 30%; (Human Neuronal Cell, 1 µM) 47%. “TCTTTCCATTTATTTCCATT (sugars l2 d13 l1 d1 l3, PS)”: the target mRNA inhibition (Human Neuronal Cell, 7.5 µM) was determined as 42%. Still for that read-out and setting: for “TACTCTGCAATACACCA (sugars l1 d2 l2 d10 l2, PS)” the value was 56%. In the case of TTTGACATTCCATCTC (sugars l3 d10 l3, PS), the target mRNA inhibition runs as follows: (Human Neuronal Cell, 0.2 µM) 56%; (Human Neuronal Cell, 1 µM) 59%.

With “TGAAAATCTCAACTACCAT (sugars ldldldddddddldddlll, PS)”, the target mRNA inhibition (Human Neuronal Cell, 7.5 µM) was found to be 50%. Still for that read-out and setting: as for “TGTTTCCATCTACTATTA (sugars l1 d4 l1 d9 l3, PS)”, the figure is 61%; as for “GAAAATCTCAACTACCATT (sugars l2 d12 l5, PS)”, 49%. On the same count and under the same terms, for “TACTCTGCAATACACCA (sugars l1 d13 l3, PS)” the value was 60%; for “TTTTTTTCTTACTATCTTCA (sugars l3 d15 l2, PS)”, 28%; for “ATCTCATGACCACCTAA (sugars ldldddddddddlldll, PS)”, 51%.

As for “GTTTATACCCTTTCCAAT (sugars l1 d12 l2 d1 l2, PS)”, the target mRNA inhibition (Human Neuronal Cell, 7.5 µM) was found to be 54%. Still for that read-out and setting: as for “TTTTTTCTTACTATCTTCAA (sugars l1 d4 l1 d10 l4, PS)”, the figure is 55%; as for “AGTTCTACTATACTTTCC (sugars l1 d12 l1 d2 l2, PS)”, 52%. In the case of “CAGCTTTTAACCAGAGT (sugars l2 d12 l3, PS)”, the target mRNA inhibition (Human Neuronal Cell, 7.5 µM) came to 79%. Take “TACACTTAATTATACTTCCA (sugars lddlddlddddddlddddll, PS)”: the target mRNA inhibition (Human Neuronal Cell, 7.5 µM) was found to be 61%. For “CCTACATCTCATACTTG (sugars l4 d11 l2, PS)”, the target mRNA inhibition reads like this: (Human Neuronal Cell, 0.2 µM) -13%; (Human Neuronal Cell, 1 µM) 17%; (Human Neuronal Cell, 5 µM) 12%; under setting [1], 94.2%.

As for “TTACACTTAATTATACTT (sugars l3 d12 l3, PS)”, the target mRNA inhibition by setting is: (Human Neuronal Cell, 0.2 µM) 14%; (Human Neuronal Cell, 1 µM) 22%.

Regarding “AGTTCTACTATACTTTC (sugars l4 d11 l2, PS)”, the target mRNA inhibition is, setting by setting: (Human Neuronal Cell, 0.2 µM) 50%; (Human Neuronal Cell, 1 µM) 57%. Take “TTACACTTAATTATACTTCC (sugars l3 d1 l1 d12 l3, PS)”: under “Human Neuronal Cell, 7.5 µM”, the target mRNA inhibition came out at 70%.

As to “GCAACATTATTAACCACCT (sugars ldlldlddddddlddldll, PS)”, the target mRNA inhibition (Human Neuronal Cell, 7.5 µM) amounted to 44%.

Consider “ACTGTTTATACCCTTTCC (sugars l2 d14 l2, PS)”, for which the target mRNA inhibition turned out to be 36% (Human Neuronal Cell, 0.2 µM) and 50% (Human Neuronal Cell, 1 µM). Take “AGTTCTACTATACTTTCC (sugars l1 d1 l1 d13 l2, PS)”: the target mRNA inhibition (Human Neuronal Cell, 7.5 µM) came to 40%. As for “AGTTCTACTATACTTTC (sugars ldlldddddddldllll, PS)”, the target mRNA inhibition (Human Neuronal Cell, 7.5 µM) worked out at 30%.

For the sequence GCCAATACCCACAAAC (sugars l3 d10 l3, PS), the target mRNA inhibition was 11% (Human Neuronal Cell, 0.2 µM) and 33% (Human Neuronal Cell, 1 µM). Take TACCAATAGTTACCTT (sugars l2 d10 l4, PS): the target mRNA inhibition (Human Neuronal Cell, 0.2 µM) turned out to be 30% and the target mRNA inhibition (Human Neuronal Cell, 1 µM) came out at 49%. On to “GAAAATCTCAACTACCATT (sugars ldllddddddddldldlll, PS)”, for which the target mRNA inhibition (Human Neuronal Cell, 7.5 µM) was 57%.

As for “ATCATTCTCAACAATTAA (sugars l5 d8 l5, PS)”, the target mRNA inhibition (Human Neuronal Cell, 7.5 µM) came to 48%. In the case of “TTGTCTCTAATCCTATT (sugars l2 d11 l4, PS)”, the target mRNA inhibition worked out at 24% (Human Neuronal Cell, 0.2 µM) and 52% (Human Neuronal Cell, 1 µM). On to “TTTATACCTTTCTTTAACCC (sugars lddddlddddddddddldll, PS)”, for which the target mRNA inhibition (Human Neuronal Cell, 7.5 µM) was 63%.

Turning to GAACAACTTCTATCAT (sugars l2 d10 l4, PS), the target mRNA inhibition (Human Neuronal Cell, 0.2 µM) was found to be 16% and the target mRNA inhibition (Human Neuronal Cell, 1 µM) was 28%. Turning to “ATTTTTTTCTTACTATCTTC (sugars ldlldlldddddddddddll, PS)”, the target mRNA inhibition (Human Neuronal Cell, 7.5 µM) was 69%. On the same count and under the same terms, for “TTATAGCCATTCTATCT (sugars llldlddddddldddll, PS)” the value was 52%. For the sequence CTTCAAGAATTCTCTC (sugars l2 d10 l4, PS), the target mRNA inhibition was determined as 44% (Human Neuronal Cell, 0.2 µM) and 43% (Human Neuronal Cell, 1 µM). For the sequence “CCACTGATTTCCTTAAA (sugars l4 d11 l2, PS)”, the target mRNA inhibition by setting is: (Human Neuronal Cell, 0.2 µM) 40%; (Human Neuronal Cell, 1 µM) 57%. In the case of “TATTGATTCAATTCCCT (sugars ldldlddddddddldll, PS)”, for the setting “Human Neuronal Cell, 7.5 µM”, the target mRNA inhibition was 60%. “TCTTTCCATTTATTTCCAT (sugars l2 d14 l3, PS)”: where the note is “Human Neuronal Cell, 7.5 µM”, the target mRNA inhibition came to 43%. For ACATCTCATACTTGCT (sugars l4 d10 l2, PS), the target mRNA inhibition under setting [1] worked out at 94.8%. “CTCAAAGATCATTCTCA (sugars ldlldddddddlddlll, PS)”: the target mRNA inhibition (Human Neuronal Cell, 7.5 µM) came out at 69%. The same measure, in the same setting: as for “AGCAACATTATTAACCAC (sugars l5 d7 l1 d3 l2, PS)”, the figure is 47%. On to “TCCTATATTCTCTTAAA (sugars l4 d11 l2, PS)”, for which the target mRNA inhibition by setting is: (Human Neuronal Cell, 0.2 µM) 47%; (Human Neuronal Cell, 1 µM) 66%. “CTGTTTATACCCTTTCCA (sugars l1 d3 l1 d11 l2, PS)”: the target mRNA inhibition (Human Neuronal Cell, 7.5 µM) was 50%. In the case of CTTTTAACCAGAGTGG (sugars l4 d9 l3, PS), where the note is “Human Neuronal Cell, 7.5 µM”, the target mRNA inhibition came to 65%.

With “CCATTTATTTCCATTTATTT (sugars ldldddddddddddllddll, PS)”, the target mRNA inhibition (Human Neuronal Cell, 7.5 µM) was found to be 52%.

Turning to “CAAGTTTCCTATATTCT (sugars l4 d11 l2, PS)”, the target mRNA inhibition is, setting by setting: (Human Neuronal Cell, 0.2 µM) 66%; (Human Neuronal Cell, 1 µM) 70%. Taken in the same sequence, the figures for ACACATCTTGTATACA (sugars l4 d10 l2, PS) were 49% and 56%. “TAAAATTATTTATACACCAT (sugars lddlddlddddddlldllll, PS)”: the target mRNA inhibition (Human Neuronal Cell, 7.5 µM) was determined as 2%. Turning to “CATTATTATTTAACCTT (sugars l2 d11 l4, PS)”, the target mRNA inhibition was -2% (Human Neuronal Cell, 0.2 µM) and 14% (Human Neuronal Cell, 1 µM). “CCTTTAATGCTTCTAAC (sugars l2 d11 l4, PS)”: the target mRNA inhibition reads like this: (Human Neuronal Cell, 0.2 µM) 35%; (Human Neuronal Cell, 1 µM) 53%. For the sequence “TTTTTTCTTACTATCTTCAA (sugars ldllldldddddddddldll, PS)”, the target mRNA inhibition (Human Neuronal Cell, 7.5 µM) stood at 58%. With “ATCTTTCCATTTATTTCCAT (sugars ldddddlddddddlddddll, PS)”, for the setting “Human Neuronal Cell, 7.5 µM”, the target mRNA inhibition came out at 41%. For the sequence TACTATACTTTCCTCT (sugars l2 d10 l4, PS), the target mRNA inhibition (Human Neuronal Cell, 0.2 µM) stood at 59% and the target mRNA inhibition (Human Neuronal Cell, 1 µM) stood at 60%. On to AGCTTACCAAATATTC (sugars l4 d10 l2, PS), for which the target mRNA inhibition came out at 17% (Human Neuronal Cell, 0.2 µM) and 23% (Human Neuronal Cell, 1 µM). Take “GTTTCCATCTACTATTAAT (sugars ldddlddddddddlddlll, PS)”: the target mRNA inhibition (Human Neuronal Cell, 7.5 µM) worked out at 58%. On the same count and under the same terms, for “CTTTTAACCAGAGTGGCAT (sugars l3 d13 l3, PS)” the value was 62%. In the case of CTTGACTACACATCTT (sugars l3 d10 l3, PS), the target mRNA inhibition (Human Neuronal Cell, 0.2 µM) was 50% and the target mRNA inhibition (Human Neuronal Cell, 1 µM) is 54%. For ACCACCTTAAGTAACA (sugars l4 d10 l2, PS) the same measures were 27% and 33%.
